Marks after values point to notes of the source that are not given here.
What was measured:
[1] = biological target: T1, PAI-1 (Homo sapiens, UniProt P05121); experiment: PAI-1 Inhibitory Activity Assay (Reference Test Example 1 (1)); assay type: biochemical; conditions: 35 μM and 50 μM; FIG. 14
T1 construct: purchased Molecular Innovations Inc., USA (PAI-1); American Diagnostica, Inc., USA (t-PA)
Description: The compounds a and b (test compounds) were evaluated for inhibitory action on human PAI-1 (product of Molecular Innovations Inc., USA, hereinafter referred to the same). More specifically, human PAI-1 was added to a 0.1% Tween 80-containing 100 mM Tris-HCl (pH 8) solution each containing the above compound respectively in a given concentration (20, 35, 50 and 100 μM), and incubated at 37° C. for 15 minutes. Subsequently, added thereto was human tissue plasminogen activator (t-PA) (product of American Diagnostica, Inc., USA, hereinafter referred to the same), adjusted to […], and further incubated at 37° C. for 15 minutes. Then, 1.25 mM of S-2288 synthesized substrate (product of Chromogenix, Italy, hereinafter referred to as the same), a chromogenic substrate, was added thereto. The final mixed solution contained 100 mM Tris-HCl (pH 8), 30 mM NaCl, 1% DMSO, 0.1% Tween […], 9.8 nM t-PA, 1 mM S-2288 and the test compound a or b (20, 35, 50 or 100 μM).
Free radical p-nitroanilide removed from the chromogenic substrate (S-2288) by t-PA action was measured using a spectrophotometer at an absorbance of 405 nm, every 5 minutes, for 30 minutes. […]

[2] = biological target: T1, PAI-1; experiment: Fibrinolytic Action Assay (fibrin plate, PAI-1 + t-PA + test compound); assay type: biochemical; conditions: mixture of PAI-1, t-PA and test compound, 18 hours at room temperature
Description: The compounds a and b were evaluated for fibrinolytic action in accordance with the method disclosed in the document (Matsuo, O. et al., Haemostasis 16, 43-50 (1986)).
More specifically, an aqueous solution (25 mM barbital sodium, 50 mM NaCl, and 25 mM CaCl2) containing a concentration of 1.5 mg/ml of fibrinogen (product of Organon Teknica) was added on a 9 cm-plate to thrombin (10NIH U/ml: product of Mochida Pharmaceutical Co., Ltd.) dissolved in a 0.2 ml physiological saline, and the mixture was allowed to stand for 2 hours at room temperature. Using this mixture, fibrinolysis assay was conducted.
Namely, a mixture of PAI-1, t-PA and a test compound were dropped onto the above-mentioned plate, and incubated for 18 hours at room temperature. Fibrinolysis due to the plasminogen activation was assayed in terms of the lysed area on the plate.

[3] = system: bleomycin-induced pulmonary fibrosis; experiment: Effects on bleomycin-induced pulmonary fibrosis (mouse model); assay type: in vivo
Description: (§1) A C57BL/6 mouse (male, body weight 19 to 21 g) was intraperitoneally anesthetized with pentobarbital, and an incision was made on the cervical organ. Ten mice were used as controls. The control mice (n=10) were endotracheally administered with bleomycin (product of Nippon Kayaku Co., Ltd.) (1.5 U/kg), lysed in physiological saline, twice a day for 14 days. On the other hand, the test mice were subjected to forcible oral administration with the compound b (200 mg/kg), suspended in a 0.5% carboxymethyl cellulose aqueous solution, twice a day for 14 days, in addition to the above endotracheal administration. Then, the lung tissues taken from these control mice and the test mice were analyzed, and further assayed for hydroxyproline levels. The hydroxyproline levels in the lung tissues were assayed in terms of the level in the hydrolysate of the lung tissues as described in the method of Kivirikko et al (Anal. Biochem. 19, 249-255 (1967)). Pulmonary fibrosis levels (severity) were scored from 0 to 8, based on the method of Ashcort et al (J. Clin. Pathol. 41, 467-470, (1988)). Further, the control mice and test mice were assayed for plasma PAI-1 activity (ng/ml). The results of lung tissue analysis were shown in FIG. 15 (a represents fibrosis score and b is a set of histological stain images).

[4] = biological target: T2, plasma PAI-1 (Mus musculus, UniProt P22777); experiment: Plasma PAI-1 activity in mice with bleomycin-induced pulmonary fibrosis; assay type: in vivo
T2 construct: from tissue; host or cells: mouse plasma (C57BL/6, male)
T2 sequence (P22777 23-402): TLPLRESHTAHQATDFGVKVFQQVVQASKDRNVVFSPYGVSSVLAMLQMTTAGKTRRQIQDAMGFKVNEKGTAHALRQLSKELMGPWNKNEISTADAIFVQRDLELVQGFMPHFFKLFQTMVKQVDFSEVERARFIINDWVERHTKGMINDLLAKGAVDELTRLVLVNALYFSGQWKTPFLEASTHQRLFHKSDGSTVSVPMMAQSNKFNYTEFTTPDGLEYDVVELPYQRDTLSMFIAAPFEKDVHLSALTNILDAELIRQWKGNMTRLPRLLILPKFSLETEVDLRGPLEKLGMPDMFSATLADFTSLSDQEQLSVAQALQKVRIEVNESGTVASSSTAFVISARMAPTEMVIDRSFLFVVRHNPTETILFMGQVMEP
Description: as §1

[5] = C57BL/6 mice, bleomycin, 200 mg/kg p.o. twice/day for 14 days in 0.5% CMC, n=10, mean±SE
[6] = versus elevation by bleomycin, 200 mg/kg p.o. twice a day

T1 sequence (P05121 24-402): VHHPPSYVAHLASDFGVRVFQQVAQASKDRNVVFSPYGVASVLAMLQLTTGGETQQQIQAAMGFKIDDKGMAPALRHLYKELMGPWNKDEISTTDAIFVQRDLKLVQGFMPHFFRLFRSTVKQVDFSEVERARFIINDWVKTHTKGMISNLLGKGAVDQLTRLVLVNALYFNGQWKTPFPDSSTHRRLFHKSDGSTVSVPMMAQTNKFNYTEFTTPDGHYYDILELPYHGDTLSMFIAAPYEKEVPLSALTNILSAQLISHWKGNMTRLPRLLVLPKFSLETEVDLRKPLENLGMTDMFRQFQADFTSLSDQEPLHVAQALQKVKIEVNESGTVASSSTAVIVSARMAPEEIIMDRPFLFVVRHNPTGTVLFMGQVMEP

| SMILES | PAI-1 activity inhibitory action compared with tiplaxtinin [1] | fibrinolysis (lysed area on the plate) [2] | Hydroxyproline Level in Lung Tissue [3, 5] | fibrosis score ([3]; scored from 0 to 8 (Ashcroft), bleomycin mice, 200 mg/kg p.o. twice a day for 14 days, FIG. 15) | hydroxyproline level in the lung tissues (in words) [3, 6] | Plasma PAI-1 Activity [4, 5] | plasma PAI-1 activity (in words) [4, 6] |
| --- | --- | --- | --- | --- | --- | --- | --- |
| CCC(CC(=O)Nc1scc(-c2ccccc2)c1C(=O)O)C(=O)Nc1scc(-c2ccccc2)c1C(=O)O (stereo not drawn) [compound a, 2-[3-(3′-Carboxy-4′-phenylthiophen-2′-ylcarbamoyl)-pentanoylamino]-4-phenylthiophen-3-carboxylic acid] | higher PAI-1 activity inhibitory action at concentrations of 35 μM and 50 μM than tiplaxtinin | inhibit the fibrinolysis suppression caused by PAI-1 |  |  |  |  |  |
| CCC(CC(=O)Nc1scc(-c2cccs2)c1C(=O)O)C(=O)Nc1scc(-c2cccs2)c1C(=O)O (stereo not drawn) [compound b, 2-[3-(3′-carboxy-4′-thienylthiophen-2′-ylcarbamoyl)-pentanoylamino]-4-thienylthiophen-3-carboxylic acid] | higher PAI-1 activity inhibitory action at concentrations of 35 μM and 50 μM than tiplaxtinin | inhibit the fibrinolysis suppression caused by PAI-1 | 204.2 ± 9.5^b μg/lung | 2.9±0.42 | significantly decreases | 1.2 ± 0.1^b ng/ml | significantly decreases |
